From patent US4835185A, “Immunomodulator for improving commercial performance of domestic animals” (Iowa State University Research Foundation, Inc., priority 1987, dated 1989)

How the values were obtained:
[1] = Feedlot steers: performance and carcass; assay type: in vivo, steers (cattle)
Description: Seventy-two medium-frame steers, with an average weight of 578 lbs., were allotted to 12 pens of 6 animals each. A common basal diet was fed ad libitum to all cattle. This consisted of 48.9% cracked corn, 24.4% ground corn cobs, 17.8% expeller Soybean meal, 7.0% molasses (liquid), 1.3% limestone, 0.25% dicalcium phosphate, 2% salt, 0.02% trace mineral premix, and 0.1% vitamin A premix for the first 58 days of the experiment, and was changed to 54.3% cracked corn and 12.8% expeller soybean meal for the remaining 103 days of the experiment. Three pens were assigned to each treatment. The treatments consisted of four levels of Ca-KIC in a pelleted supplement: 0%, 0.02%, 0.07%, and 0.20% of the basal diet (0.05% control pellets, 0.04% KIC pellets, 0.14% KIC pellets, and 0.40% KIC pellets). The pellets were preweighted and top-dressed on the basal diet twice daily. After 58 days, the cattle on the 0.20% KIC were removed from the experiment. The cattle were not implanted with a growth promotant nor were ionophores included in the diet. The cattle were placed in the feedlot and fed a growing ration for 5 weeks prior to the start of the experiment. The cattle were weighed on 2 consecutive days at the beginning and end of the experiment, and every 14 days during the trial. The cattle were sold through a commercial beef processing plant when they were approaised by visual examination to grade Choice. Loin eye area and fat thickness over the loin were measured on each carcass. Quality and yield grades, and percent kidney, heart, and lepvic (KHP) fat were estimated by the federal graders.
Therefore, an attempt was made to protect KIC from ruminal degradation. KIC pellets, resistant to rumen degradation, were made by mixing zein, ethanol, KIC, limestone, bentonite and water in a ratio of 8.3:7.4:5.2:3:2:1. This mixture was extruded through a die of 15 mm directly into a vat of liquid nitrogen. The shattered pellets were spread out and allowed to air-dry for two days. The dried pellets were coated with zein (2% w/w) by spraying with a 30% zein solution made in 80% ethanol. The pellets again were air-dried. Control pellets were made similar to the KIC pellets except that the mixture was zein, limestone, ethanol, bentonite and water in a ratio of 12:12:7.5:2.7:1. When KIC pellets were placed in the rumen (nylon bag technique), 45% of the KIC added was present in the bags after 36 hr of rumen digestion.
KIC was obtained from SOBAC, Paris, France. Zein was purchased from Freeman Industries, Tuckahoe, N.Y. Each experiment was statistically analyzed by analysis of variance with three pens per treatment.

[2] = Laying hens: egg production and egg yolk cholesterol; assay type: in vivo, laying hens (chickens)
Protocol: Laying hens (69 weeks of age) were randomly assigned to either a control diet or a diet containing 0.2 wt % KIC (Na). For the next 28 days feed consumption was recorded and eggs collected. Eggs were weighed and analyzed for egg yolk cholesterol. The feed composition is shown in Table C and the results in Table D. The total protein was about 18% on a dry matter basis, and the amount of leucine was about 9% of the protein. The control diet was the same except for the omission of the KIC.

neutrophils = assay: Neutrophil function (experiments 1 to 3); assay type: cell-based, sheep and cattle; conditions: any experiment
Protocol: A study was conducted to determine if KIC administration can alter white blood cell function, specifically T lymphocyte function, in growing sheep and cattle. Eighteen medium-framed crossbred male lambs were used in experiment 1. Lambs were randomly assigned to either a control diet (n=10) or a diet supplemented with 1% KIC (n=8). Animals were fed ad libitum in individual cages. At 100 and 108 days of treatment, 50-ml blood samples were collected for lymphocyte and neutrophil function tests. In experiment 2, 19 intact crossbred male lambs were randomly assigned to either a saline treatment group (n=9) or a KIC treatment group (n=10). Control lambs were injected with 50 ml of a saline solution, and KIC treated lambs were injected with 50 ml of a 5% solution of KIC (sodium salt) daily (~2.5 g KIC/day). All injections were made intraperitoneally in the right posterior abdominal region after disinfection of the area. […] At the end of the 6-233k periods, 100-ml blood samples were collected from each animal, and lymphocyte and neutrophil function were evaluated. […] Lymphocytes and neutrophils were isolated, and lymphocyte blastogenesis and neutrophil function evaluated. […] Each experiment was statistically analyzed by analysis of variance. In sheep experiments, individual animals were the experimental units, whereas pen means were analyzed in the cattle experiment.

Q: For `CC(C)CC(=O)C(=O)O` [KIC, alpha-ketoisocaproate], which Feed conversion improvement ([1]; 161-day trial, 0.02% KIC, NS) is on record?
A: 8%

Q: And the daily gain increase ([1]; 161-day trial, 0.02% KIC, p<0.01)?
A: 14%

Q: What about the daily gain increase ([1]; 161-day trial, 0.07% KIC, (NX)) of the same molecule?
A: 7%

Q: What about the Feed conversion improvement ([1]; 161-day trial, 0.07% KIC, NS) of the same molecule?
A: 6%

Q: What about the Daily gain ([1]; 58 days, 0.07% dietary KIC (0%: 2.80)) of the same molecule?
A: 3.12 lb.

Q: What about the Feed/Gain ([1]; 58 days, 0.07% dietary KIC (0%: 5.7)) of the same molecule?
A: 5.2

Q: What about the Daily intake ([1]; 58 days, 0.07% dietary KIC (0%: 16.0)) of the same molecule?
A: 16.3 lb DM/day

Q: What about the Ending wt. ([1]; 58 days, 0.07% dietary KIC (0%: 756)) of the same molecule?
A: 770 lb.

Q: What about the Daily gain ([1]; 58 days, 0.20% dietary KIC (0%: 2.80)) of the same molecule?
A: 3.19 lb.

Q: And the Feed/Gain ([1]; 58 days, 0.20% dietary KIC (0%: 5.7))?
A: 5.2

Q: And the Daily intake ([1]; 58 days, 0.20% dietary KIC (0%: 16.0))?
A: 16.3 lb DM/day

Q: What about the Ending wt. ([1]; 58 days, 0.20% dietary KIC (0%: 756)) of the same molecule?
A: 779 lb.

Q: What about the Daily gain ([1]; 58 days, % dietary KIC printed 0.2 (0%: 2.80), * p<.1) of the same molecule?
A: 3.36 lb.

Q: And the Feed/Gain ([1]; 58 days, % dietary KIC printed 0.2 (0%: 5.7), ** p<.05)?
A: 5.0

Q: And the Daily intake ([1]; 58 days, % dietary KIC printed 0.2 (0%: 16.0))?
A: 16.8 lb DM/day

Q: And the Ending wt. ([1]; 58 days, % dietary KIC printed 0.2 (0%: 756))?
A: 786 lb.

Q: And the Daily gain ([1]; 161 days, 0.02% dietary KIC (0%: 2.66), *** p<.01)?
A: 3.03 lb.

Q: What about the Feed/Gain ([1]; 161 days, 0.02% dietary KIC (0%: 8.0)) of the same molecule?
A: 7.4

Q: What about the Daily intake ([1]; 161 days, 0.02% dietary KIC (0%: 21.2)) of the same molecule?
A: 22.6 lb DM/day

Q: What about the Ending wt. ([1]; 161 days, 0.02% dietary KIC (0%: 1016)) of the same molecule?
A: 1068 lb.

Q: What about the Daily gain ([1]; 161 days, 0.07% dietary KIC (0%: 2.66)) of the same molecule?
A: 2.85 lb.

Q: And the Feed/Gain ([1]; 161 days, 0.07% dietary KIC (0%: 8.0))?
A: 7.5

Q: What about the Daily intake ([1]; 161 days, 0.07% dietary KIC (0%: 21.2)) of the same molecule?
A: 21.6 lb DM/day

Q: And the Ending wt. ([1]; 161 days, 0.07% dietary KIC (0%: 1016))?
A: 1035 lb.

Q: What about the Feed conversion improvement ([1]; first 58 days, 0.02% KIC, p<0.05) of the same molecule?
A: 13%

Q: What about the daily gain increase ([1]; first 58 days, 0.02% KIC, p<0.07) of the same molecule?
A: 20%

Q: What about the daily gain increase ([1]; first 58 days, 0.07% KIC, NS) of the same molecule?
A: 11%

Q: What about the Feed conversion improvement ([1]; first 58 days, 0.07% KIC, p<0.17) of the same molecule?
A: 9%

Q: And the Feed conversion improvement ([1]; first 58 days, 0.20% KIC, p<0.11)?
A: 10%

Q: What about the daily gain increase ([1]; first 58 days, 0.20% KIC, p<0.18) of the same molecule?
A: 14%

Q: And the Feed conversion improvement ([1]; long-term trial, summary)?
A: up to 8%

Q: And the daily gain increase ([1]; long-term trial, summary)?
A: up to 14%

Q: And the “Av. Eggs” value ([2]; 0.2 wt % KIC (Na), 28 days (control 1.105))?
A: 1.233 kg./hen

Q: And the “Average No. Eggs/Hen” value ([2]; 0.2 wt % KIC (Na), 28 days (control 17.7))?
A: 19.5

Q: What about the “Feed Average” value ([2]; 0.2 wt % KIC (Na), 28 days (control 109)) of the same molecule?
A: 109 gms/hen/day

Q: And the “Avg. yolk Cholesterol” value ([2]; 0.2 wt % KIC (Na), 28 days (control 1068))?
A: 996 mg/100 gms

Q: What about the “Av. Eggs (kg./hen), % Change” value ([2]; vs control) of the same molecule?
A: +11.1%

Q: What about the “Average No. Eggs/Hen, % Change” value ([2]; vs control) of the same molecule?
A: +10.2%

Q: And the “Avg. yolk Cholesterol, % Change” value ([2]; vs control)?
A: -7%

Q: And the “Feed Average, % Change” value ([2]; vs control)?
A: 0%

Q: And the antibody-dependent cell-mediated cytotoxicity (neutrophils)?
A: did not alter
